Test results as given in patent US11247965B2 (VenatoRx Pharmaceuticals, Inc., priority 2017, dated 2022).
Like-named read-outs stand apart in the source and are kept apart here.

Legend:
[1] = system: HBV replication in HepAD38 cells; experiment: Anti-HBV activity in HepAD38 cells, extracellular HBV DNA by QPCR; format: cell-based, HBV (genotype D, serotype ayw)
Procedure, shortened: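 HepAD38 cells (HepG2 with tet-repressible HBV genotype D genome) seeded overnight, tetracycline removed, then treated 7 days with compounds (half-log dilutions, 30 μM–10 nM; 1:200 from DMSO). Supernatant HBV DNA quantified by QPCR against standard curve; % inhibition vs vehicle, EC50 by 4-parameter fit.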

HepG2 cells = experiment: In vitro cytotoxicity, MTT cell viability assay in HepG2 cells; format: cell-based; details: human, 7 days
Procedure, shortened: (§1)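 Read-out: MTT formazan absorbance at 492 nm, expressed as % of vehicle signal; CC50 by 4-parameter non-linear regression. Parental HepG2, 20,000 cells/well, treated 7 days with compound from 30 μM down to 1.0 nM.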

[2] = as above; format: cell-based; details: human, Cytotoxicity CC50
Procedure, shortened: as §1

HBV = details: Phase 1b clinical trial, 600 mg bid dosing for 29 days; cited from earlier work
[3] = Hepatitis B virus, HePAD38, 168 h, read-out: Anti-HBV EC50, HepAD38 cells, extracellular HBV DNA by QPCR, 7 days of incubation
[4] = read-out: Anti-HBV EC50, HepAD38 cells, extracellular HBV DNA by QPCR, 7 days of incubation

| SMILES | EC50 [1, 3] | CC50 (HepG2 cells) | EC50 [1, 4] | CC50 at 7 days [2] | reduction in HBV DNA (HBV) |
| --- | --- | --- | --- | --- | --- |
| Cc1cc(NC(=O)c2ccc(F)c(C(F)(F)C(=O)N3C4CCC3CC(O)(CO)C4)c2)ccc1F (single isomer, unassigned; isomer 1) [Example 274] | < 5 µM | < 5 µM | – | – | – |
| Cc1cc(NC(=O)c2ccc(F)c(C(F)(F)C(=O)N3C4CCC3CC(O)(CO)C4)c2)ccc1F (single isomer, unassigned; isomer 2) [Example 275] | – | > 30 µM | < 5 µM | – | – |
| O=C(Nc1ccc(F)c(F)c1)c1ccc(F)c(C(F)(F)C(=O)NC2CCC(O)CC2)c1 (stereo not drawn) [Example 27, 3-(1,1-difluoro-2-(((1s,4s)-4-hydroxycyclohexyl)amino)-2-oxoethyl)-N-(3,4-difluorophenyl)-4-fluorobenzamide] | – | 5 to 30 µM | < 5 µM | – | – |
| Cc1cc(NC(=O)c2c(C)c(C(O)(C(=O)NC(C)(C)C)C(F)(F)F)c(C)n2C)ccc1F (stereo not drawn) [Example 155, 4-(3-(tert-butylamino)-1,1,1-trifluoro-2-hydroxy-3-oxopropan-2-yl)-N-(4-fluoro-3-methylphenyl)-1,3,5-trimethyl-1H-pyrrole-2-carboxamide] | – | 5 to 30 µM | < 5 µM | – | – |
| N#Cc1cc(NC(=O)c2ccc(F)c(C(F)(F)C(=O)N3[C@@H]4CC[C@H]3C[C@@H](O)C4)c2)ccc1F [Example 178, N-(3-cyano-4-fluorophenyl)-3-(1,1-difluoro-2-((1R,3r,5S)-3-hydroxy-8-azabicyclo[3.2.1]octan-8-yl)-2-oxoethyl)-4-fluorobenzamide] | < 5 µM | > 30 µM | – | – | – |
| N#Cc1cc(NC(=O)c2ccc(F)c(C(F)(F)C(=O)N3CCC(O)C(F)(F)C3)c2)ccc1F (stereo not drawn) [Example 191, N-(3-cyano-4-fluorophenyl)-3-(2-(3,3-difluoro-4-hydroxypiperidin-1-yl)-1,1-difluoro-2-oxoethyl)-4-fluorobenzamide] | – | 5 to 30 µM | < 5 µM | – | – |
| N#Cc1cc(NC(=O)c2ccc(F)c(C(F)(F)C(=O)N3[C@@H]4CC[C@H]3C[C@@H](O)C4)c2)ccc1F [Example 192, N-(3-cyano-4-fluorophenyl)-3-(1,1-difluoro-2-((1R,3r,5S)-3-hydroxy-8-azabicyclo[3.2.1]octan-8-yl)-2-oxoethyl)-4-fluorobenzamide] | – | 5 to 30 µM | < 5 µM | – | – |
| Cc1cc(NC(=O)c2ccc(F)c(C(F)(F)C(=O)N3CCC(N)C(C)(C)C3)n2)ccc1F (stereo not drawn) [Example 304, 6-(2-(4-amino-3,3-dimethylpiperidin-1-yl)-1,1-difluoro-2-oxoethyl)-5-fluoro-N-(4-fluoro-3-methylphenyl)picolinamide] | < 5 µM | – | – | 5 to 30 µM | – |
| CC(=O)NC1CCN(C(=O)C(F)(F)c2nc(C(=O)Nc3ccc(F)c(C)c3)ccc2F)CC1(C)C (stereo not drawn) [Example 305, 6-(2-(4-acetamido-3,3-dimethylpiperidin-1-yl)-1,1-difluoro-2-oxoethyl)-5-fluoro-N-(4-fluoro-3-methylphenyl)picolinamide] | < 5 µM | – | – | 5 to 30 µM | – |
| Cc1cc(NC(=O)c2ccc(F)c(C(F)(F)C(=O)N3[C@@H]4COC[C@H]3C[C@H](NS(C)(=O)=O)C4)c2)ccc1F [Example 306, 3-(1,1-difluoro-2-((1R,5S,7r)-7-(methylsulfonamido)-3-oxa-9-azabicyclo[3.3.1]nonan-9-yl)-2-oxoethyl)-4-fluoro-N-(4-fluoro-3-methylphenyl)benzamide] | < 5 µM | – | – | 5 to 30 µM | – |
| COC(=O)N[C@@H]1C[C@H]2COC[C@@H](C1)N2C(=O)C(F)(F)c1cc(C(=O)Nc2ccc(F)c(C)c2)ccc1F [Example 307, methyl ((1R,5S,7r)-9-(2,2-difluoro-2-(2-fluoro-5-((4-fluoro-3-methylphenyl)carbamoyl)phenyl)acetyl)-3-oxa-9-azabicyclo[3.3.1]nonan-7-yl)carbamate] | < 5 µM | – | – | 5 to 30 µM | – |
| Cc1cc(NC(=O)c2ccc(F)c(C(F)(F)C(=O)N3CCc4sc(N)nc4C3)c2)ccc1F [Example 308, 3-(2-(2-amino-6,7-dihydrothiazolo[4,5-c]pyridin-5(4H)-yl)-1,1-difluoro-2-oxoethyl)-4-fluoro-N-(4-fluoro-3-methylphenyl)benzamide] | < 5 µM | – | – | 5 to 30 µM | – |
| Cc1cc(NC(=O)c2ccc(F)c(C(F)(F)C(=O)Nc3nc4c(s3)CCNC4)c2)ccc1F [Example 309, 3-(1,1-difluoro-2-oxo-2-((4,5,6,7-tetrahydrothiazolo[4,5-c]pyridin-2-yl)amino)ethyl)-4-fluoro-N-(4-fluoro-3-methylphenyl)benzamide] | 5 to 30 µM | – | – | 5 to 30 µM | – |
| Cc1cc(NC(=O)c2ccc(F)c(C(F)(F)C(=O)N3CC4COCC(C3)C4O)c2)ccc1F (stereo not drawn) [Example 310, 3-(1,1-difluoro-2-(9-hydroxy-3-oxa-7-azabicyclo[3.3.1]nonan-7-yl)-2-oxoethyl)-4-fluoro-N-(4-fluoro-3-methylphenyl)benzamide] | < 5 µM | – | – | > 30 µM | – |
| CC(=O)NC1CCN(C(=O)C(F)(F)c2cc(C(=O)Nc3ccc(F)c(C)c3)ccc2N)CC1(C)C (stereo not drawn) [Example 311, 3-(2-(4-acetamido-3,3-dimethylpiperidin-1-yl)-1,1-difluoro-2-oxoethyl)-4-amino-N-(4-fluoro-3-methylphenyl)benzamide] | < 5 µM | – | – | > 30 µM | – |
| CC(=O)N[C@H]1CCN(C(=O)C(F)(F)c2cc(C(=O)Nc3ccc(F)c(C)c3)ccc2F)CC1(C)C [Example 327, (S)-3-(2-(4-acetamido-3,3-dimethylpiperidin-1-yl)-1,1-difluoro-2-oxoethyl)-4-fluoro-N-(4-fluoro-3-methylphenyl)benzamide] | < 5 µM | – | – | > 30 µM | – |
| Cc1cc(NC(=O)c2ccc(F)c(C(F)(F)C(=O)N3CCC(N)C(F)(F)C3)c2)ccc1F (stereo not drawn) [Example 334, 3-(2-(4-amino-3,3-difluoropiperidin-1-yl)-1,1-difluoro-2-oxoethyl)-4-fluoro-N-(4-fluoro-3-methylphenyl)benzamide] | < 5 µM | – | – | 5 to 30 µM | – |
| Cc1cc(NC(=O)c2ccc(F)c(C(F)(F)C(=O)N3CCC(NS(C)(=O)=O)C(F)(F)C3)c2)ccc1F (stereo not drawn) [Example 335, 3-(2-(3,3-difluoro-4-(methylsulfonamido)piperidin-1-yl)-1,1-difluoro-2-oxoethyl)-4-fluoro-N-(4-fluoro-3-methylphenyl)benzamide] | < 5 µM | – | – | > 30 µM | – |
| Cc1cc(NC(=O)c2ccc(F)c(C(F)(F)C(=O)N3[C@@H]4CCC[C@H]3C[C@@H](NS(C)(=O)=O)C4)c2)ccc1F [Example 336, 3-(1,1-difluoro-2-((1R,3r,5S)-3-(methylsulfonamido)-9-azabicyclo[3.3.1]nonan-9-yl)-2-oxoethyl)-4-fluoro-N-(4-fluoro-3-methylphenyl)benzamide] | < 5 µM | – | – | > 30 µM | – |
| Cc1cc(NC(=O)c2ccc(F)c(C(F)(F)C(=O)N3[C@@H]4CCC[C@H]3C[C@H](N)C4)c2)ccc1F [Example 337, 3-(2-((1R,3s,5S)-3-amino-9-azabicyclo[3.3.1]nonan-9-yl)-1,1-difluoro-2-oxoethyl)-4-fluoro-N-(4-fluoro-3-methylphenyl)benzamide] | < 5 µM | – | – | 5 to 30 µM | – |
| Cc1cc(NC(=O)c2ccc(F)c(C(F)(F)C(=O)N3[C@@H]4CCC[C@H]3C[C@H](NS(C)(=O)=O)C4)c2)ccc1F [Example 338, 3-(1,1-difluoro-2-((1R,3s,5S)-3-(methylsulfonamido)-9-azabicyclo[3.3.1]nonan-9-yl)-2-oxoethyl)-4-fluoro-N-(4-fluoro-3-methylphenyl)benzamide] | < 5 µM | – | – | 5 to 30 µM | – |
| Cc1cc(NC(=O)c2ccc(F)c(C(F)(F)C(=O)N3Cc4sc(N)nc4C(C)(C)C3)c2)ccc1F [Example 339, 3-(2-(2-amino-7,7-dimethyl-6,7-dihydrothiazolo[5,4-c]pyridin-5(4H)-yl)-1,1-difluoro-2-oxoethyl)-4-fluoro-N-(4-fluoro-3-methylphenyl)benzamide] | < 5 µM | – | – | 5 to 30 µM | – |
| Cc1cc(NC(=O)c2ccc(F)c(C(F)(F)C(=O)N3CCc4nc(N)sc4CC3)c2)ccc1F [Example 340, 3-(2-(2-amino-4,5,7,8-tetrahydro-6H-thiazolo[4,5-d]azepin-6-yl)-1,1-difluoro-2-oxoethyl)-4-fluoro-N-(4-fluoro-3-methylphenyl)benzamide] | < 5 µM | – | – | 5 to 30 µM | – |
| Cc1cc(NC(=O)c2ccc(F)c(C(F)(F)C(=O)N3CCn4c(nnc4C(F)(F)F)C3)c2)ccc1F [Example 341, 3-(1,1-difluoro-2-oxo-2-(3-(trifluoromethyl)-5,6-dihydro-[1,2,4]triazolo[4,3-a]pyrazin-7(8H)-yl)ethyl)-4-fluoro-N-(4-fluoro-3-methylphenyl)benzamide] | 5 to 30 µM | – | – | 5 to 30 µM | – |
| Cc1cc(NC(=O)c2ccc(F)c(C(F)(F)C(=O)N3C4CCCC3c3sc(N)nc3C4)c2)ccc1F (stereo not drawn) [Example 342, 3-(2-(2-amino-4,5,6,7,8,9-hexahydro-5,9-epiminocycloocta[d]thiazol-10-yl)-1,1-difluoro-2-oxoethyl)-4-fluoro-N-(4-fluoro-3-methylphenyl)benzamide] | < 5 µM | – | – | > 30 µM | – |
| O=C(Nc1cc(F)c(F)c(F)c1)c1ccc(F)c(S(=O)(=O)N2CCC(O)CC2)c1 [NVR 3-778] | – | – | – | – | −1.7 log 10 |
